We go through three molecules from patent US11827580B2, “Aminotetraline activators of serotonin receptors” (ATAI Life Sciences AG, priority 2021, dated 2023).

Each structure is given as a SMILES string. Counter-ions that a name gives are not always drawn.

Assay [1] concerns the target T1, 5HT2A (Homo sapiens, UniProt P28223). As to the kind of experiment: 5HT2A activation (%) max at two concentrations (Table 1). It counts as cell-based. The settings on record: for 5HT2A activation (%) max @ 03 μM: 03 μM [sic]; for 5HT2A activation (%) max @ 30 μM: 30 μM (first value of the cell).
Another assay concerns the target T2, Human 5-HT1A receptor (Homo sapiens, UniProt P08908).
T2 construct: host or cells: CHO (hamster), stably transfected, cAMP Hunter cell line
T2 sequence (P08908 1-422): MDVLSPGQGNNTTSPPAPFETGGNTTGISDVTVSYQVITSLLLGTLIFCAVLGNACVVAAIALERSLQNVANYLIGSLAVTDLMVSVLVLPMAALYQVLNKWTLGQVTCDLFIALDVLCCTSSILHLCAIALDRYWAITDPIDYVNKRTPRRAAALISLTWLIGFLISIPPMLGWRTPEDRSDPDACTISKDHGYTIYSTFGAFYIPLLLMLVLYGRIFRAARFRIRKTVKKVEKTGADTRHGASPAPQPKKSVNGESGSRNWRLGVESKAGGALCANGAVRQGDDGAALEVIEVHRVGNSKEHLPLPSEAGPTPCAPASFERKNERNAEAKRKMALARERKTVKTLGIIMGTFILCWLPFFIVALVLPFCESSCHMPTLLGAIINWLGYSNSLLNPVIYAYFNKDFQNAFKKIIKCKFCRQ
As to the kind of experiment: cAMP secondary messenger pathway assay (HitHunter cAMP, Gi agonist mode). It counts as cell-based. The settings on record: CHO cells, forskolin present, read-out: EC50 5-HT1A (Gi signaling). The text has this:
cAMP Secondary Messenger Pathway Assay Method (Performed by DiscoveRx Eurofins)
DiscoverX has developed a panel of cell lines stably expressing non-tagged GPCRs that signal through cAMP. Hit Hunter® cAMP assays monitor the activation of a GPCR via Gi and Gs secondary messenger signaling in a homogenous, non-imaging assay format using a technology developed by DiscoverX called Enzyme Fragment Complementation (EFC) with β-galactosidase (β-Gal) as the functional reporter. The enzyme is split into two complementary portions: EA for Enzyme Acceptor and ED for Enzyme Donor. ED is fused to cAMP and in the assay competes with cAMP generated by cells for binding to a cAMP-specific antibody. Active β-Gal is formed by complementation of exogenous EA to any unbound ED-cAMP. Active enzyme can then convert a chemiluminescent substrate, generating an output signal detectable on a standard microplate reader.
cAMP Hunter cell lines were expanded from freezer stocks according to standard procedures. Human 5-HT1A receptor-mediated cAMP signaling was evaluated in stably transfected hamster-derived CHO cells. Cells were seeded in a total volume of 20 μL into white walled, 384-well microplates and incubated at 37° C. overnight. cAMP modulation was determined using the DiscoverX HitHunter cAMP XS+ assay. […]
Compound activity was analyzed using CBIS data analysis suite (ChemInnovation, CA). […]

In a further assay the target is T3, Human 5-HT2B receptor (Homo sapiens, UniProt P41595).
T3 construct: host or cells: U2OS or HEK (the text names 5-HT2B under both)
The experiment in a line: Calcium mobilization assay (Gq signaling). The class given is cell-based. An excerpt: (§1) Calcium Mobilization Assay Method (Performed by DiscoveRx Eurofins)
(§2) The Calcium No-Wash^PLUS assay monitors the activation of a GPCR via Gq secondary messenger signaling in a live cell, non-imaging assay format. Calcium mobilization in PathHunter® cell lines or other cell lines stably expressing Gq-coupled GPCRs is monitored using a calcium-sensitive dye that is loaded into cells. GPCR activation by a compound results in the release of calcium from intracellular stores and an increase in dye fluorescence that is measured in real-time.
(§3) Cell lines expressing the GPCR of interest were expanded from freezer stocks according to standard procedures. Human 5-HT2A, 5-HT2B or 5-HT2C receptor-mediated calcium mobilization was evaluated in stably transfected human-derived U2OS (5-HT2A or 5-HT2B) or HEK (5-HT2B) cells. Cells were seeded in a total volume of 20 μL into black-walled, clear-bottom, Poly-D-lysine coated 384-well microplates and incubated at 37° C. overnight prior to testing. […]
(§4) Intermediate dilution of sample stocks was performed to generate 4× sample in assay buffer. Compound agonist activity was measured on a FLIPR Tetra (MDS). Calcium mobilization was monitored for 2 minutes and 10 μL 4× sample in HBSS/20 mM Hepes was added to the cells seconds into the assay.
(§5) Compound activity data was analyzed using CBIS data analysis suite (ChemInnovation, CA). […]
In general terms: A change in cytosolic calcium serves as a functional read-out for many receptors and channels.

The target in a further assay is T4, Human 5-HT2C receptor (Homo sapiens, UniProt P28335).
T4 construct: host or cells: U2OS or HEK (not assigned to 5-HT2C in the text)
T4 sequence (P28335 33-458): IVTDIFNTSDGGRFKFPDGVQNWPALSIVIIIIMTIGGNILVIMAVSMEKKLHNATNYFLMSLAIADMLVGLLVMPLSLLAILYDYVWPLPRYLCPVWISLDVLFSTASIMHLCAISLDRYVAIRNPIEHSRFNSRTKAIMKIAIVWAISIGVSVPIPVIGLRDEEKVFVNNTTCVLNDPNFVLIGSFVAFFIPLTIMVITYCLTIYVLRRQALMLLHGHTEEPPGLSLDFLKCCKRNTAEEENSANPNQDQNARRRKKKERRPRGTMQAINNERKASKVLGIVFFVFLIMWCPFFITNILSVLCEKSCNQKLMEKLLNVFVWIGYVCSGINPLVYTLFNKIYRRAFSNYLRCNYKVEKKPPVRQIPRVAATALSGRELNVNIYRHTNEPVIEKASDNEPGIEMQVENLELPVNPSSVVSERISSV
As to the kind of experiment: Calcium mobilization assay (Gq signaling). It counts as cell-based.
Source text: as §1, §2, §3, §4, §5

Another assay deals with 5-HT receptors. The settings on record: cited from earlier work.
For assay [2] the following is noted: in comparison to mescaline or 2,5-dimethoxy-4-methylphenylisopropylamine at similar doses; cited from earlier work.
The target in assay [3] is T1, 5HT2A. The experiment in a line: Calcium mobilization assay (Gq signaling). The class given is cell-based. Details: host or cells: U2OS (human), stably transfected.
Source text: as §1, §2
Cell lines expressing the GPCR of interest were expanded from freezer stocks according to standard procedures. Human 5-HT2A, 5-HT2B or 5-HT2C receptor-mediated calcium mobilization was evaluated in stably transfected human-derived U2OS (5-HT2A or 5-HT2B) or HEK (5-HT2B) cells. Cells were seeded in a total volume of 20 μL into black-walled, clear-bottom, Poly-D-lysine coated 384-well microplates and incubated at 37° C. overnight prior to testing.
Assays were performed in 1× Dye Loading Buffer consisting of 1× Dye, 1× Additive A and 2.5 mM Probenecid in HBSS/20 mM Hepes. Probenicid was prepared fresh. Cells were loaded with dye prior to testing. Media was aspirated from cells and replaced with 20 μL Dye Loading Buffer. Cells were incubated for 45 minutes at room temperature.
For agonist determination, cells were incubated with sample to induce response. After dye loading, cells were removed from the incubator and 10 μL HBSS/20 mM Hepes was added. 3× vehicle was included in the buffer when performing agonist dose curves to define the EC80 for subsequent antagonist assays. Cells were incubated for 30 minutes at room temperature in the dark to equilibrate plate temperature.
as §4
Compound activity data was analyzed using CBIS data analysis suite (ChemInnovation, CA). For agonist mode assays, percentage activity is calculated using the following formula: % Activity=100%×(mean RFU of test sample−mean RFU of vehicle control)/(mean MAX RFU control ligand−mean RFU of vehicle control).
In these studies, the MAX RFU was generated by using 0.1 μM serotonin for the calcium mobilization assay.

For assay [4], the target named is T1, 5HT2A. As to the kind of experiment: PathHunter β-Arrestin assay. The class given is cell-based. Details: host or cells: U2OS (human), stably transfected. The text has this:
Arrestin Pathway (Performed by DiscoverX Eurofins)
The PathHunter® β-Arrestin assay monitors the activation of a GPCR in a homogenous, non-imaging assay format using a technology developed by DiscoverX called Enzyme Fragment Complementation (EFC) with β-galactosidase (β-Gal) as the functional reporter. […] EA is fused to β-Arrestin and PK is fused to the GPCR of interest. When the GPCR is activated and β-Arrestin is recruited to the receptor, ED and EA complementation occurs, restoring β-Gal activity which is measured using chemiluminescent PathHunter® Detection Reagents.
PathHunter cell lines (DiscoveRx Eurofins) were expanded from freezer stocks according to standard procedures. Human 5-HT2A receptor-mediated GPCR β-arrestin activity was evaluated in stably transfected human-derived U2OS cells. Cells were seeded in a total […] into white walled, 384-well microplates and incubated at 37° C. overnight prior to testing.
For agonist determination, cells were incubated with sample to induce response. Intermediate dilution of sample stocks was performed to generate 5× sample in assay buffer. 5 μL of 5× sample was added to cells and incubated at 37° C. or room temperature for 120 minutes. Vehicle concentration was 1%.
β-Arrestin assay signal was generated through a single addition of 12.5 or 15 μL (50% v/v) of PathHunter Detection reagent cocktail, followed by a one hour incubation at room temperature. Microplates were read following signal generation with a PerkinElmer Envision™ instrument for chemiluminescent signal detection.
Compound activity was analyzed using CBIS data analysis suite (ChemInnovation, CA). For agonist mode assays, percentage activity was calculated using the following formula: % Activity=100%×(mean RLU of test sample−mean RLU of vehicle control)/(mean MAX control ligand−mean RLU of vehicle control).
In these studies, the MAX control ligand response was generated using 1 μM serotonin.

T1 sequence (P28223 whole entry): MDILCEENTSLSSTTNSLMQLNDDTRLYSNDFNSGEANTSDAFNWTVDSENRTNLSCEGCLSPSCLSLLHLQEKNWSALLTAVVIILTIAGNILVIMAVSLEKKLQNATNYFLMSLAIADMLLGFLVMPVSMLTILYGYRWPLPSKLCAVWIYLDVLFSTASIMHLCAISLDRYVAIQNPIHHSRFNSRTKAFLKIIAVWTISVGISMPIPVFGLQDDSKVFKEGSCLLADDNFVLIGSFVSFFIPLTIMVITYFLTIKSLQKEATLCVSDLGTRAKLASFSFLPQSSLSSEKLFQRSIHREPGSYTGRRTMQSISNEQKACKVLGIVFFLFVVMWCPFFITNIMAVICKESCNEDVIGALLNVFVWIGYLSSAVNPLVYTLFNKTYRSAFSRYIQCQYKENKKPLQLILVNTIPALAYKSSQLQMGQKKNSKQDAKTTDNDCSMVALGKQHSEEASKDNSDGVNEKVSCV
T3 sequence (P41595 whole entry): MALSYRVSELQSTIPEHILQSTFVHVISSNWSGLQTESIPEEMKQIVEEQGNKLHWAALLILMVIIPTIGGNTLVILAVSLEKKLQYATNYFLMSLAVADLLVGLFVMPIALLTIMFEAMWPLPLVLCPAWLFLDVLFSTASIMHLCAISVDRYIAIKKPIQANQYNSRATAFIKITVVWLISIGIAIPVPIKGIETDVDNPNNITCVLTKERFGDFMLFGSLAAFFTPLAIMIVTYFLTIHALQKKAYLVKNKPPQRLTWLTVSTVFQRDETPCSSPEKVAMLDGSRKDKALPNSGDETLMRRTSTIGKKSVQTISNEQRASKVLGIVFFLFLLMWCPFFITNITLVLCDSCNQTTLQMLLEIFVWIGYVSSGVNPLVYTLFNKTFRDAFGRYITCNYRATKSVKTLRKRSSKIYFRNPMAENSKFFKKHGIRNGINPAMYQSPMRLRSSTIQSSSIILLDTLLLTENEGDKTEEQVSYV

In general, EC50 refers to the midpoint of the concentration-response curve. As to `COc1cc(C)c(OC)c2c1CC(N)CC2` (stereo not shown) [Compound 1-2, 5,8-dimethoxy-6-methyl-1,2,3,4-tetrahydronaphthalen-2-amine], the “5HT2A activation (%) max @ 03 μM” value at 5HT2A [1] is 60.9%. Moreover, the “5HT2A activation (%) max @ 30 μM” value on 5HT2A [1] came to 81.9%. In addition, the EC50 came out at 438 nM at Human 5-HT1A receptor; 315 nM at Human 5-HT2B receptor; 4.8 nM at Human 5-HT2C receptor; 38.8 nM on 5HT2A [3] (calcium mobilization); 386 nM at 5HT2A [4] (U2OS cells, read-out: EC50 5-HT2A (β-arrestin signaling)). The “activity at 5-HT receptors” value in the assay on 5-HT receptors is “has activity at 5-HT receptors”. In assay [2], the “common psychedelic side effects in rats” value was “failed to elicit common psychedelic side effects”. In addition, the “agonism of 5-HT2A Gq-mediated signaling” value on 5HT2A [3] is listed as “full-agonism”. On 5HT2A [3] (FIG. 1B), the “potency bias, 5-HT2A Gq-mediated signaling versus β-arrestin recruitment” value is reported as roughly 10 fold. Moreover, the “increase in potency at 5-HT2A compared to 5-HT2B” value on 5HT2A [3] (Gq signaling, FIG. 1A) is on record as roughly 8 fold. The Emax at 5HT2A [3] (compared to the maximum serotonin response, read-out: max activation of 5-HT2A Gq-mediated signaling) was found to be 97%; at 5HT2A [4] (read-out: maximum efficacy levels (partial agonism), pathway not given, β-arrestin by context) it was 66%. Moreover, at 5HT2A [4], the “agonism / potency for β-arrestin recruitment at 5-HT2A” value is given as “partial agonism”.
Take `CNC1CCc2c(OC)ccc(OC)c2C1` (stereo not shown) [Compound 1-4, 5,8-dimethoxy-N-methyl-1,2,3,4-tetrahydronaphthalen-2-amine hydrochloride]: at 5HT2A [1], the “5HT2A activation (%) max @ 03 μM” value is reported as 8.5% and the “5HT2A activation (%) max @ 30 μM” value is given as 20.3%.
The corresponding values for `COc1ccc(OC)c2c1CCCC2CN` (stereo not shown) [Compound 3-1, (5,8-dimethoxy-1,2,3,4-tetrahydronaphthalen-1-yl)methanamine hydrochloride] are 1.5% and 53%.
